Patent publication US20080039468A1, “Novel 3-Phenyltetrahydrocinnolin-5-Ol Derivative and Medicinal Use Thereof” (priority 2004, published 2008)
Converted amounts (≈) assume the structure as drawn.

The compounds below were run on Mastocarcinoma Cells MCF-7 (assay: In vitro antitumor effect on mastocarcinoma cells MCF-7 (Methylene Blue staining, proliferation inhibition)). Conditions: Homo sapiens, MCF7, 72 h; MCF-7 cells, 3 days culture with test compound, RPMI 1640 with 10% serum, Methylene Blue absorbance; read-out: IC50 value (50% cytostatic concentration).
Assay type: cell-based
Method: In Vitro Antitumor Effect on Mastocarcinoma Cells MCF-7
By the use of RPMI 1640 medium (Asahi Tekunogurasu Co., Ltd.) containing 10% serum, 2,000 MCF-7 cells were seeded into a 96-well plate. The cells were cultured for 24 hours under conditions of 37° C. and 5% CO2/95% air, and then a test compound was added thereto, followed by culturing for another 3 days. Cells were stained with a 0.05% Methylene Blue solution and absorbance at 660 nm was measured with a microtiter plate reader (Benchmark Plus, mfd. by BIO RAD Laboratories Inc.). The proliferation inhibition rate was calculated by the following equation and the 50% cytostatic concentration was determined from a dose-response curve. Proliferation inhibition rate=((absorbance for control group−absorbance for drug-treated group)/absorbance for control group))×100

IC50 [µg/mL] | Structure (SMILES)
0.128 (≈ 0.246 µM) | CC1Cc2nnc(-c3cccc(C(F)(F)F)c3)cc2C(OC(=O)CCC(=O)NCCN2CCOCC2)C1 (centres unmarked) [Compound No. 23, 5-[3-[2-(morpholin-4-yl)ethyl]amino-carbonylpropanoyl]oxy-7-methyl-3-(3-trifluoromethylphenyl)-5,6,7,8-tetrahydrocinnoline]
1.18 (≈ 2.79 µM) | COC(=O)CCC(=O)OC1CC(C)Cc2nnc(-c3cccc(C(F)(F)F)c3)cc21 (centres unmarked) [Compound No. 26, 5-(3-methoxycarbonylpropanoyl)oxy-7-methyl-3-(3-trifluoromethylphenyl)-5,6,7,8-tetrahydro-cinnoline]
0.736 (≈ 1.69 µM) | CCOC(=O)CCC(=O)OC1CC(C)Cc2nnc(-c3cccc(C(F)(F)F)c3)cc21 (centres unmarked) [Compound No. 27, 5-(3-ethoxycarbonylpropanoyl)oxy-7-methyl-3-(3-trifluoromethylphenyl)-5,6,7,8-tetrahydro-cinnoline]
0.129 (≈ 0.306 µM) | CC1Cc2nnc(-c3cccc(C(F)(F)F)c3)cc2C(OC(=O)CCCN(C)C)C1 (centres unmarked) [Compound No. 21, 5-(4-dimethylaminobutanoyl)oxy-7-methyl-3-(3-trifluoromethylphenyl)-5,6,7,8-tetrahydro-cinnoline]
4.34 | CC1Cc2nnc(-c3cccc(C(F)(F)F)c3)cc2C(OC(=O)N2CCOCC2)C1.Cl (centres unmarked) [Compound No. 43, 7-methyl-5-(morpholin-4-yl-carbonyl)oxy-3-(3-trifluoromethylphenyl)-5,6,7,8-tetrahydrocinnoline hydrochloride]
0.649 (≈ 1.58 µM) | COCCOC(=O)OC1CC(C)Cc2nnc(-c3cccc(C(F)(F)F)c3)cc21 (centres unmarked) [Compound No. 38, 5-(2-methoxyethoxycarbonyl)oxy-7-methyl-3-(3-trifluoromethylphenyl)-5,6,7,8-tetrahydro-cinnoline]
0.098 (≈ 0.197 µM) | CC1Cc2nnc(-c3cccc(C(F)(F)F)c3)cc2C(OC(=O)CCC(=O)NCc2cccnc2)C1 (centres unmarked) [Compound No. 24, 5-[3-(pyridin-3-ylmethyl)aminocarbonylpropanoyl]oxy-7-methyl-3-(3-trifluoromethylphenyl)-5,6,7,8-tetrahydrocinnoline]
0.144 (≈ 0.289 µM) | CC1Cc2nnc(-c3cccc(C(F)(F)F)c3)cc2C(OC(=O)CCC(=O)NCc2ccncc2)C1 (centres unmarked) [Compound No. 25, 5-[3-(pyridin-4-ylmethyl)aminocarbonylpropanoyl]oxy-7-methyl-3-(3-trifluoromethylphenyl)-5,6,7,8-tetrahydrocinnoline]

Further lines, the compound ahead of its results:

Structure (SMILES) | IC50 [µg/mL]
CCOCC(=O)OC1CC(C)Cc2nnc(-c3cccc(C(F)(F)F)c3)cc21 (centres unmarked) [Compound No. 13, 5-ethoxyacetyloxy-7-methyl-3-(3-trifluoromethylphenyl)-5,6,7,8-tetrahydrocinnoline] | 0.135 (≈ 0.342 µM)
CC1Cc2nnc(-c3cccc(C(F)(F)F)c3)cc2C(OC(=O)COCC(=O)O)C1 (centres unmarked) [Compound No. 14, 5-(carboxymethoxyacetyl)oxy-7-methyl-3-(3-trifluoromethylphenyl)-5,6,7,8-tetrahydrocinnoline] | 0.148 (≈ 0.349 µM)
CC1Cc2nnc(-c3cccc(C(F)(F)F)c3)cc2C(OC(=O)CCC(=O)O)C1 (centres unmarked) [Compound No. 18, 5-(3-carboxypropanoyl)oxy-7-methyl-3-(3-trifluoromethylphenyl)-5,6,7,8-tetrahydrocinnoline] | 0.981 (≈ 2.4 µM)
CC1Cc2nnc(-c3cccc(C(F)(F)F)c3)cc2C(OC(=O)COCC(=O)NCCN2CCOCC2)C1 (centres unmarked) [Compound No. 15, 5-[(2-(morpholin-4-yl)ethyl)aminocarbonylmethoxyacetyl]oxy-7-methyl-3-(3-trifluoromethylphenyl)-5,6,7,8-tetrahydrocinnoline] | 0.171 (≈ 0.319 µM)
CC1Cc2nnc(-c3cccc(C(F)(F)F)c3)cc2C(OC(=O)COCC(=O)NCc2cccnc2)C1 (centres unmarked) [Compound No. 16, 5-[(pyridin-3-ylmethyl)aminocarbonylmethoxyacetyl]oxy-7-methyl-3-(3-trifluoromethyl-phenyl)-5,6,7,8-tetrahydrocinnoline] | 0.166 (≈ 0.323 µM)
CC1Cc2nnc(-c3cccc(C(F)(F)F)c3)cc2C(OC(=O)CCCC(=O)O)C1 (centres unmarked) [Compound No. 19, 5-(4-carboxybutanoyl)oxy-7-methyl-3-(3-trifluoromethylphenyl)-5,6,7,8-tetrahydrocinnoline] | 0.908 (≈ 2.15 µM)
CC1Cc2nnc(-c3cccc(C(F)(F)F)c3)cc2C(OC(=O)COCC(=O)NCc2ccncc2)C1 (centres unmarked) [Compound No. 17, 5-[(pyridin-4-ylmethyl)aminocarbonylmethoxyacetyl]oxy-7-methyl-3-(3-trifluoromethyl-phenyl)-5,6,7,8-tetrahydrocinnoline] | 0.139 (≈ 0.27 µM)

Same assay, conditions: MCF-7 cells, 3 days culture with test compound, RPMI 1640 with 10% serum, Methylene Blue absorbance

IC50 value (50% cytostatic concentration) [µg/mL] | Structure (SMILES)
0.152 (≈ 0.327 µM) | CC1Cc2nnc(-c3cccc(C(F)(F)F)c3)cc2C(OC(=O)OCCN2CCOCC2)C1 (centres unmarked) [Compound No. 39, 5-(2-(morpholino-4-yl)ethoxycarbonyl)oxy-7-methyl-3-(3-trifluoromethylphenyl)-5,6,7,8-tetrahydrocinnoline]
1.339 (≈ 3.16 µM) | CC1Cc2nnc(-c3cccc(C(F)(F)F)c3)cc2C(OC(=O)CC(O)C(=O)O)C1 (centres unmarked) [Compound No. 20, 5-[(3-carboxy-3-hydroxy)propanoyl]oxy-7-methyl-3-(3-trifluoromethylphenyl)-5,6,7,8-tetrahydrocinnoline]
